In PubChem BioAssay (NCI):
Values joined by “and” are separate entries in the source; they are usually repeats but may differ in a detail not shown here. Equal values may be shown once.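 In this assay, cells in 96-well plates receive the compound at five concentrations for 48 hours. Endpoints are linearly interpolated between the surrounding concentrations. GI50 is the concentration that inhibits growth by half. At the TGI there is no net growth.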

Legend:
Assay in all cases: NCI anticancer screen, dose series, 48 h; in the data active means GI50 below about 0.43 µM; inactive means the rest
A498 renal = tested on: A498 renal
ACHN renal = tested on: ACHN renal
CAKI-1 renal = tested on: CAKI-1 renal
COLO 205 colon = tested on: COLO 205 colon
DLD-1 colon = tested on: DLD-1 colon
DMS 114 small cell lung = tested on: DMS 114 small cell lung
EKVX NSCLC = tested on: EKVX NSCLC
HCC-2998 colon = tested on: HCC-2998 colon
HCT-15 colon = tested on: HCT-15 colon
HOP-62 NSCLC = tested on: HOP-62 NSCLC
K-562 leukemia = tested on: K-562 leukemia
KM20L2 colon = tested on: KM20L2 colon
LOX IMVI melanoma = tested on: LOX IMVI melanoma
LXFL 529 NSCLC = tested on: LXFL 529 NSCLC
M14 melanoma = tested on: M14 melanoma
M19-MEL melanoma = tested on: M19-MEL melanoma
NCI-H460 lung = tested on: NCI-H460 lung
NCI-H522 lung = tested on: NCI-H522 lung
OVCAR-4 ovarian = tested on: OVCAR-4 ovarian
OVCAR-5 ovarian = tested on: OVCAR-5 ovarian
RPMI-8226 leukemia = tested on: RPMI-8226 leukemia
RXF 393 renal = tested on: RXF 393 renal
SF-268 CNS = tested on: SF-268 CNS
SK-MEL-28 melanoma = tested on: SK-MEL-28 melanoma
SK-MEL-5 melanoma = tested on: SK-MEL-5 melanoma
SK-OV-3 ovarian = tested on: SK-OV-3 ovarian
SR leukemia = tested on: SR leukemia
SW-620 colon = tested on: SW-620 colon
TK-10 renal = tested on: TK-10 renal
U251 CNS = tested on: U251 CNS
UACC-257 melanoma = tested on: UACC-257 melanoma
UACC-62 melanoma = tested on: UACC-62 melanoma
UO-31 renal = tested on: UO-31 renal
786-0 renal = tested on: 786-0 renal
A549 NSCLC = tested on: A549 NSCLC
CCRF-CEM leukemia = tested on: CCRF-CEM leukemia
DMS 273 small cell lung = tested on: DMS 273 small cell lung
HCT-116 colon = tested on: HCT-116 colon
HL-60(TB) leukemia = tested on: HL-60(TB) leukemia
HOP-18 NSCLC = tested on: HOP-18 NSCLC
HOP-92 NSCLC = tested on: HOP-92 NSCLC
HT29 colon = tested on: HT29 colon
IGROV1 ovarian = tested on: IGROV1 ovarian
KM12 colon = tested on: KM12 colon
MALME-3M melanoma = tested on: MALME-3M melanoma
MOLT-4 leukemia = tested on: MOLT-4 leukemia
NCI-H226 lung = tested on: NCI-H226 lung
NCI-H23 lung = tested on: NCI-H23 lung
OVCAR-3 ovarian = tested on: OVCAR-3 ovarian
OVCAR-8 ovarian = tested on: OVCAR-8 ovarian
SF-295 CNS = tested on: SF-295 CNS
SF-539 CNS = tested on: SF-539 CNS
SK-MEL-2 melanoma = tested on: SK-MEL-2 melanoma
SN12C renal = tested on: SN12C renal
SNB-19 CNS = tested on: SNB-19 CNS
SNB-75 CNS = tested on: SNB-75 CNS
SNB-78 CNS = tested on: SNB-78 CNS
XF 498 CNS = tested on: XF 498 CNS

CCCCCCCCCCCCCCCC[N+](C)(C)Cc1ccc(C[N+](C)(C)CCCCCCCCCCCCCCCC)cc1
> 100 µM: TGI (A498 renal) | TGI (ACHN renal) | TGI (CAKI-1 renal) | TGI (COLO 205 colon) | TGI (DLD-1 colon) | TGI (EKVX NSCLC) | TGI (HCC-2998 colon) | TGI (HCT-15 colon) | TGI (HOP-62 NSCLC) | TGI (KM20L2 colon) | TGI (LXFL 529 NSCLC) | TGI (M14 melanoma) | TGI (M19-MEL melanoma) | TGI (OVCAR-4 ovarian) | TGI (RPMI-8226 leukemia) | TGI (SF-268 CNS) | TGI (SK-MEL-5 melanoma) | TGI (SR leukemia) | TGI (SW-620 colon) | TGI (TK-10 renal) | TGI (UACC-257 melanoma) | TGI (UACC-62 melanoma) | TGI (UO-31 renal)
> 22.4 µM: TGI (NCI-H522 lung)
8.71 µM: TGI (NCI-H460 lung)
5.27 µM: TGI (SK-OV-3 ovarian)
3.82 µM: TGI (U251 CNS)
6.07 µM: TGI (LOX IMVI melanoma)
3.27 µM: TGI (RXF 393 renal)
4.67 µM: TGI (OVCAR-5 ovarian)
8.52 µM: TGI (K-562 leukemia)
7.57 µM: TGI (SK-MEL-28 melanoma)
5.02 µM: TGI (DMS 114 small cell lung)

COc1ccc(CNc2cc(OC)cc(OC)c2)cc1
> 96.2 µM: TGI (786-0 renal)
> 100 µM: TGI (A498 renal) | TGI (A549 NSCLC) | TGI (ACHN renal) | TGI (CAKI-1 renal) | TGI (CCRF-CEM leukemia) | TGI (COLO 205 colon) | TGI (DLD-1 colon) | TGI (DMS 114 small cell lung) | TGI (DMS 273 small cell lung) | TGI (EKVX NSCLC) | TGI (HCC-2998 colon) | TGI (HCT-116 colon) | TGI (HCT-15 colon) | TGI (HL-60(TB) leukemia) | TGI (HOP-18 NSCLC) | TGI (HOP-62 NSCLC) | TGI (HOP-92 NSCLC) | TGI (HT29 colon) | TGI (IGROV1 ovarian) | TGI (K-562 leukemia) | TGI (KM12 colon) | TGI (KM20L2 colon) | TGI (LOX IMVI melanoma) | TGI (LXFL 529 NSCLC) | TGI (M14 melanoma) | TGI (M19-MEL melanoma) | TGI (MALME-3M melanoma) | TGI (MOLT-4 leukemia) | TGI (NCI-H226 lung) | TGI (NCI-H23 lung) | TGI (NCI-H460 lung) | TGI (NCI-H522 lung) | TGI (OVCAR-3 ovarian) | TGI (OVCAR-4 ovarian) | TGI (OVCAR-5 ovarian) | TGI (OVCAR-8 ovarian) | TGI (RPMI-8226 leukemia) | TGI (RXF 393 renal) | TGI (SF-268 CNS) | TGI (SF-295 CNS) | TGI (SF-539 CNS) | TGI (SK-MEL-2 melanoma) | TGI (SK-MEL-28 melanoma) | TGI (SK-MEL-5 melanoma) | TGI (SK-OV-3 ovarian) | TGI (SN12C renal) | TGI (SNB-19 CNS) | TGI (SW-620 colon) | TGI (TK-10 renal) | TGI (U251 CNS) | TGI (UACC-257 melanoma) | TGI (UACC-62 melanoma) | TGI (XF 498 CNS)
> 100 µM and 96.8 µM: TGI (SNB-75 CNS)
> 100 µM and 97.8 µM: TGI (UO-31 renal)
87.7 µM and 86.6 µM: TGI (SNB-78 CNS)
inactive: GI50 (A498 renal) > 100 µM and 14.7 µM | GI50 (CAKI-1 renal) > 100 µM and 34.6 µM | GI50 (CCRF-CEM leukemia) 78.7 µM and 28.6 µM | GI50 (DLD-1 colon) 97.7 µM and 42.6 µM | GI50 (DMS 273 small cell lung) > 100 µM and 42.3 µM | GI50 (HCT-15 colon) > 100 µM and 46.6 µM | GI50 (HOP-18 NSCLC) > 100 µM | GI50 (HT29 colon) > 73.8 µM and 35 µM | GI50 (KM20L2 colon) > 100 µM and 49 µM | GI50 (OVCAR-5 ovarian) > 78.1 µM | GI50 (SF-295 CNS) > 100 µM and 38.2 µM | GI50 (SF-539 CNS) > 90.2 µM | GI50 (SN12C renal) > 70.1 µM
